Test results from BigSolDB 2.1.

O=C(O)c1cc(C(=O)O)cc(C(=O)O)c1
solubility (mole fraction) (in ethanol, 302.89 K): 0.0207
solubility (mole fraction) (in ethanol, 309.85 K): 0.0228
solubility (mole fraction) (in ethanol, 312.83 K): 0.0237
solubility (mole fraction) (in ethanol, 319.06 K): 0.0257
solubility (mole fraction) (in ethanol, 324.5 K): 0.0277
solubility (mole fraction) (in ethylene glycol, 305.44 K): 0.00826
solubility (mole fraction) (in ethylene glycol, 310.56 K): 0.00951
solubility (mole fraction) (in ethylene glycol, 315.85 K): 0.0112
solubility (mole fraction) (in ethylene glycol, 321.33 K): 0.0131
solubility (mole fraction) (in ethylene glycol, 326.03 K): 0.0147
solubility (mole fraction) (in ethylene glycol, 331.84 K): 0.0178
solubility (mole fraction) (in isobutanol, 306 K): 0.0078
solubility (mole fraction) (in isobutanol, 310.65 K): 0.0086
solubility (mole fraction) (in isobutanol, 314.94 K): 0.00926
solubility (mole fraction) (in isobutanol, 319.87 K): 0.0104
solubility (mole fraction) (in isobutanol, 324.75 K): 0.0117
solubility (mole fraction) (in isobutanol, 330.58 K): 0.0132
solubility (mole fraction) (in isopropanol, 305.77 K): 0.00706
solubility (mole fraction) (in isopropanol, 311.02 K): 0.00798
solubility (mole fraction) (in isopropanol, 315.67 K): 0.00869
solubility (mole fraction) (in isopropanol, 320.61 K): 0.00949
solubility (mole fraction) (in isopropanol, 324.58 K): 0.0104
solubility (mole fraction) (in isopropanol, 330.39 K): 0.0117
solubility (mole fraction) (in methanol, 298.21 K): 0.012
solubility (mole fraction) (in methanol, 304.67 K): 0.0138
solubility (mole fraction) (in methanol, 308.78 K): 0.0151
solubility (mole fraction) (in methanol, 313.97 K): 0.0169
solubility (mole fraction) (in water, 301.05 K): 0.00015
solubility (mole fraction) (in water, 305.47 K): 0.00019
solubility (mole fraction) (in water, 309.8 K): 0.00025
solubility (mole fraction) (in water, 315.22 K): 0.00033
solubility (mole fraction) (in water, 320.56 K): 0.00044
solubility (mole fraction) (in water, 325.11 K): 0.00055
solubility (mole fraction) (in water, 329.42 K): 0.00069
